Source: PubChem BioAssay (NCI)
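Interpolation was linear, between the two tested concentrations surrounding the appropriate level; five concentrations were tested over 48 hours in 96-well plates. TGI marks complete inhibition of growth.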

Columns and labels:
Assay in all cases: DTP human tumour cell line panel, 48 h
HT29 colon = tested on: HT29 colon
SK-OV-3 ovarian = tested on: SK-OV-3 ovarian
SW-620 colon = tested on: SW-620 colon
CCRF-CEM leukemia = tested on: CCRF-CEM leukemia
UACC-257 melanoma = tested on: UACC-257 melanoma
OVCAR-8 ovarian = tested on: OVCAR-8 ovarian
K-562 leukemia = tested on: K-562 leukemia
COLO 205 colon = tested on: COLO 205 colon
MOLT-4 leukemia = tested on: MOLT-4 leukemia
A549 NSCLC = tested on: A549 NSCLC
RPMI-8226 leukemia = tested on: RPMI-8226 leukemia
TK-10 renal = tested on: TK-10 renal
DMS 114 small cell lung = tested on: DMS 114 small cell lung
CAKI-1 renal = tested on: CAKI-1 renal
SF-539 CNS = tested on: SF-539 CNS
HCC-2998 colon = tested on: HCC-2998 colon
DLD-1 colon = tested on: DLD-1 colon
OVCAR-3 ovarian = tested on: OVCAR-3 ovarian
MALME-3M melanoma = tested on: MALME-3M melanoma
IGROV1 ovarian = tested on: IGROV1 ovarian
SK-MEL-5 melanoma = tested on: SK-MEL-5 melanoma
RXF 393 renal = tested on: RXF 393 renal
M14 melanoma = tested on: M14 melanoma
EKVX NSCLC = tested on: EKVX NSCLC
M19-MEL melanoma = tested on: M19-MEL melanoma
UO-31 renal = tested on: UO-31 renal
NCI-H23 lung = tested on: NCI-H23 lung
SNB-19 CNS = tested on: SNB-19 CNS
SNB-78 CNS = tested on: SNB-78 CNS
HOP-92 NSCLC = tested on: HOP-92 NSCLC
LXFL 529 NSCLC = tested on: LXFL 529 NSCLC
U251 CNS = tested on: U251 CNS
NCI-H226 lung = tested on: NCI-H226 lung
NCI-H522 lung = tested on: NCI-H522 lung
KM20L2 colon = tested on: KM20L2 colon
A498 renal = tested on: A498 renal
HL-60(TB) leukemia = tested on: HL-60(TB) leukemia
RXF-631 renal = tested on: RXF-631 renal
KM12 colon = tested on: KM12 colon
SF-268 CNS = tested on: SF-268 CNS
OVCAR-4 ovarian = tested on: OVCAR-4 ovarian
DMS 273 small cell lung = tested on: DMS 273 small cell lung
786-0 renal = tested on: 786-0 renal
HCT-116 colon = tested on: HCT-116 colon
SK-MEL-28 melanoma = tested on: SK-MEL-28 melanoma
XF 498 CNS = tested on: XF 498 CNS
UACC-62 melanoma = tested on: UACC-62 melanoma
SF-295 CNS = tested on: SF-295 CNS
SNB-75 CNS = tested on: SNB-75 CNS
HCT-15 colon = tested on: HCT-15 colon
LOX IMVI melanoma = tested on: LOX IMVI melanoma
OVCAR-5 ovarian = tested on: OVCAR-5 ovarian
HOP-18 NSCLC = tested on: HOP-18 NSCLC
SK-MEL-2 melanoma = tested on: SK-MEL-2 melanoma

Measured: TGI

COC(=O)c1sc(C(=O)OC)c2c1CS(=O)C2
> 100 µM: all assays above
